Data as given in US20210353633A1, “CYCLODEXTRIN-BASED FORMULATION OF A BCL-2 INHIBITOR” (LES LABORATOIRES SERVIER, priority 2018, published 2021).
Structures can show the parent of a compound that is named as a salt. Where two headings read alike, the source gives them in different places.

Assay: Test of maximum solubility of Compound A, HCl in a HP-β-cyclodextrin as a function of the pH
Type: physicochemical
Conditions: Cavitron W7HP5 solution, aqueous with cosolvent or surfactant or cyclodextrin, thermodynamic from solid, Cavitron W7HP5 20% by weight, read-out: Solubility after 24 h
Protocol: The solubility of Compound A, HCl was studied in the presence of a HP-β-cyclodextrin as a function of the pH by means of various buffers (acetate pH=4 and phosphate pH=7.4).
0.75 g of sodium acetate trihydrate (NaC2H3O2, 3H2O) is introduced into a 250 mL graduated flask. 3.5 mL of 2 N acetic acid solution (produced from glacial acetic acid) are added. The volume is then made up to 250 mL by means of 0.9% NaCl solution, and the whole is then stirred. The pH is then adjusted to 4 by means of 1 N HCl solution.
2.075 g of monobasic potassium phosphate (KH2PO4) and 0.238 g of dibasic sodium phosphate (Na2HPO4) are dissolved in 100 mL of water. The whole is stirred until solubilisation is complete. The volume is then made up to 250 mL by means of 0.9% NaCl solution. The pH is adjusted to the desired value (7.4) by means of 1N sodium hydroxide solution.
2 g of the cyclodextrin studied (Cavitron™ W7HP5) are weighed into a 10 mL graduated flask. The volume is then made up to 10 mL by means of a water/0.9% NaCl mixture (80/20) or an acetate or phosphate buffer solution, depending on the desired pH.
Approximately 10 mg of Compound A, HCl are weighed. 1 mL of the medium containing the carrier to be tested, that is to say Cavitron™ W7HP5 without pH adjustment, Cavitron™ W7HP5 adjusted to pH=4 or Cavitron™ W7HP5 adjusted to pH=7.4, is then added. The whole is then placed under magnetic stirring. Then, 5 mg of Compound A, HCl are added. The operation is repeated if the compound solubilises. The mixture is stirred for 24 hours. The suspension so obtained is passed through a 0.45 μm filter before being analysed by HPLC chromatography.

`Cc1c(N(C(=O)c2cc(-c3cc(Cl)ccc3C(=O)N3Cc4ccccc4C[C@H]3CN3CCOCC3)n(C)c2C)c2ccc(O)cc2)cc(C#N)n1C` [Compound A, HCl, 5-(5-chloro-2-{[(3S)-3-(morpholin-4-ylmethyl)-3,4-dihydroisoquinolin-2(1H)-yl]carbonyl}phenyl)-N-(5-cyano-1,2-dimethyl-1H-pyrrol-3-yl)-N-(4-hydroxyphenyl)-1,2-dimethyl-1H-pyrrole-3-carboxamide] showed a solubility at 24 h (pH = 3.8, i.e. pH not adjusted) of 24.6 mg/mL, a solubility at 24 h (pH = 4 (acetate buffer)) of 13 mg/mL and a solubility at 24 h (pH = 7.4 (phosphate buffer)) of 1.69 mg/mL.
